T/C data for nine molecules are collected here from PubChem BioAssay AID328 (DTP/NCI, 2004).

In this test the test system is BDF1 mice, P388 leukemia ip, median survival T/C. Description: NCI In Vivo Anticancer Drug Screen. Data for tumor model P388 Leukemia (intraperitoneal) in B6D2F1 (BDF1) mice. Particulars: endpoint: median survival time, higher = longer survival. In short, it runs like this: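 T/C = treated-group survival ÷ vehicle-control survival; tumour transplanted into mice before dosing.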

Where [1] appears, read: dose: 12.5 mg/kg/injection, schedule: Q01DX009 (ip), vehicle: Klucel (hydroxypropylcellulose) (HPC).
The mark [2] stands for this setting: dose: 25.0 mg/kg/injection, schedule: Q01DX009 (ip), vehicle: Klucel (hydroxypropylcellulose) (HPC).
The mark [3] stands for this setting: dose: 25.0 mg/kg/injection, schedule: Q04DX003 (ip), vehicle: Klucel (hydroxypropylcellulose) (HPC).
[4] abbreviates: dose: 50.0 mg/kg/injection, schedule: Q01DX009 (ip), vehicle: Klucel (hydroxypropylcellulose) (HPC).
[5] abbreviates: dose: 100.0 mg/kg/injection, schedule: Q04DX003 (ip), vehicle: Klucel (hydroxypropylcellulose) (HPC).
The mark [6] stands for this setting: dose: 200.0 mg/kg/injection, schedule: Q04DX003 (ip), vehicle: Klucel (hydroxypropylcellulose) (HPC).
[7] abbreviates: dose: 400.0 mg/kg/injection, schedule: Q01DX009 (ip), vehicle: Klucel (hydroxypropylcellulose) (HPC).
Setting [8] is: dose: 400.0 mg/kg/injection, schedule: Q04DX003 (ip), vehicle: Klucel (hydroxypropylcellulose) (HPC).
Setting [9] is: dose: 100.0 mg/kg/injection, schedule: Q01DX009 (ip), vehicle: Klucel (hydroxypropylcellulose) (HPC).
Where [10] appears, read: dose: 200.0 mg/kg/injection, schedule: Q01DX009 (ip), vehicle: Klucel (hydroxypropylcellulose) (HPC).

Each structure is given as a SMILES string. “And” between values parts separate entries of the source, which are not always exact repeats. Equal entries are not always repeated. Toxic doses and inconclusive results are not listed.

`O=NN(CCCl)C(=O)Nc1ccc(NC(=O)N(CCCl)N=O)cc1`: the T/C by setting is: (dose: 0.03 mg/kg/injection, schedule: Q04DX003 (ip), vehicle: Klucel (hydroxypropylcellulose) (HPC)) 100 % of control; (dose: 0.06 mg/kg/injection, schedule: Q04DX003 (ip), vehicle: Klucel (hydroxypropylcellulose) (HPC)) 108 % of control; (dose: 0.12 mg/kg/injection, schedule: Q01DX009 (ip), vehicle: Klucel (hydroxypropylcellulose) (HPC)) 111 % of control; (dose: 0.12 mg/kg/injection, schedule: Q04DX003 (ip), vehicle: Klucel (hydroxypropylcellulose) (HPC)) 108 % of control; (dose: 0.25 mg/kg/injection, schedule: Q01DX009 (ip), vehicle: Klucel (hydroxypropylcellulose) (HPC)) 177 % of control; (dose: 0.25 mg/kg/injection, schedule: Q04DX003 (ip), vehicle: Klucel (hydroxypropylcellulose) (HPC)) 150 % of control. For the same molecule, the T/C by setting is: (dose: 0.5 mg/kg/injection, schedule: Q01DX009 (ip), vehicle: Klucel (hydroxypropylcellulose) (HPC)) 222 % of control; (dose: 0.5 mg/kg/injection, schedule: Q04DX003 (ip), vehicle: Klucel (hydroxypropylcellulose) (HPC)) 154 % of control; (dose: 0.6 mg/kg/injection, schedule: Q04DX003 (ip), vehicle: Klucel (hydroxypropylcellulose) (HPC)) 117 % of control; (dose: 1.0 mg/kg/injection, schedule: Q01DX009 (ip), vehicle: Klucel (hydroxypropylcellulose) (HPC)) 94 % of control; (dose: 1.0 mg/kg/injection, schedule: Q04DX003 (ip), vehicle: Klucel (hydroxypropylcellulose) (HPC)) 204 % of control; (dose: 1.5 mg/kg/injection, schedule: Q01DX009 (ip), vehicle: Klucel (hydroxypropylcellulose) (HPC)) 254 % of control. For the same molecule, the T/C was 152 % of control (dose: 1.6 mg/kg/injection, schedule: Q04DX003 (ip), vehicle: Klucel (hydroxypropylcellulose) (HPC)); 186 % of control (dose: 2.0 mg/kg/injection, schedule: Q04DX003 (ip), vehicle: Klucel (hydroxypropylcellulose) (HPC)); 160 % of control and 175 % of control (dose: 2.5 mg/kg/injection, schedule: Q04DX003 (ip), vehicle: Klucel (hydroxypropylcellulose) (HPC)); 231 % of control (dose: 3.0 mg/kg/injection, schedule: Q01DX009 (ip), vehicle: Klucel (hydroxypropylcellulose) (HPC)); 186 % of control (dose: 3.0 mg/kg/injection, schedule: Q04DX003 (ip), vehicle: Klucel (hydroxypropylcellulose) (HPC)); 187 % of control (dose: 4.0 mg/kg/injection, schedule: Q04DX003 (ip), vehicle: Klucel (hydroxypropylcellulose) (HPC)). Besides, the T/C reads like this: (dose: 6.0 mg/kg/injection, schedule: Q01DX009 (ip), vehicle: Klucel (hydroxypropylcellulose) (HPC)) 272 % of control; (dose: 6.0 mg/kg/injection, schedule: Q04DX003 (ip), vehicle: Klucel (hydroxypropylcellulose) (HPC)) 227 % of control and 187 % of control and 213 % of control; (dose: 9.0 mg/kg/injection, schedule: Q04DX003 (ip), vehicle: Klucel (hydroxypropylcellulose) (HPC)) 190 % of control; (dose: 12.0 mg/kg/injection, schedule: Q04DX003 (ip), vehicle: Klucel (hydroxypropylcellulose) (HPC)) 213 % of control; under setting [1], 300 % of control; (dose: 13.0 mg/kg/injection, schedule: Q04DX003 (ip), vehicle: Klucel (hydroxypropylcellulose) (HPC)) 231 % of control and 259 % of control. For the same molecule, the T/C (dose: 20.0 mg/kg/injection, schedule: Q04DX003 (ip), vehicle: Klucel (hydroxypropylcellulose) (HPC)) was 245 % of control; the T/C under setting [2] was 300 % of control; the T/C under setting [3] is 272 % of control; the T/C (dose: 30.0 mg/kg/injection, schedule: Q04DX003 (ip), vehicle: Klucel (hydroxypropylcellulose) (HPC)) was 250 % of control and 272 % of control; the T/C (dose: 44.0 mg/kg/injection, schedule: Q04DX003 (ip), vehicle: Klucel (hydroxypropylcellulose) (HPC)) was 250 % of control; the T/C under setting [4] was 210 % of control. The T/C is, setting by setting: (dose: 50.0 mg/kg/injection, schedule: Q04DX003 (ip), vehicle: Klucel (hydroxypropylcellulose) (HPC)) 254 % of control; (dose: 66.0 mg/kg/injection, schedule: Q04DX003 (ip), vehicle: Klucel (hydroxypropylcellulose) (HPC)) 241 % of control and 250 % of control; under setting [5], 233 % of control and 254 % of control and 260 % of control; (dose: 150.0 mg/kg/injection, schedule: Q01DX009 (ip), vehicle: Klucel (hydroxypropylcellulose) (HPC)) 115 % of control; (dose: 150.0 mg/kg/injection, schedule: Q04DX003 (ip), vehicle: Klucel (hydroxypropylcellulose) (HPC)) 175 % of control; under setting [6], 260 % of control and 272 % of control. The T/C under setting [7] is 115 % of control; the T/C under setting [8] was 234 % of control and 177 % of control; the T/C (dose: 600.0 mg/kg/injection, schedule: Q04DX003 (ip), vehicle: Klucel (hydroxypropylcellulose) (HPC)) is 272 % of control.
On to `CCC(=O)O[C@H]1CC[C@H]2[C@@H]3[C@@H](C)CC4=CC(=O)CC[C@]4(C)[C@H]3CC[C@]12C`, for which the T/C was 105 % of control (dose: 100.0 mg/kg/injection, schedule: Q01DX009 (ip), vehicle: saline with Tween-80); 95 % of control (dose: 200.0 mg/kg/injection, schedule: Q01DX009 (ip), vehicle: saline with Tween-80); 95 % of control (dose: 400.0 mg/kg/injection, schedule: Q01DX009 (ip), vehicle: saline with Tween-80).
On to `CN(C(=O)N(C)c1ccccc1)c1ccccc1`, for which the T/C under setting [9] was 100 % of control; the T/C under setting [5] was 91 % of control; the T/C under setting [10] is 90 % of control; the T/C under setting [6] is 91 % of control; the T/C under setting [7] was 100 % of control; the T/C under setting [8] was 87 % of control.
Consider `O=[N+]([O-])c1cccc(OCCCOc2ccccc2)c1`, for which the T/C was 100 % of control (dose: 100.0 mg/kg/injection, schedule: Q01DX009 (ip), vehicle: other); 110 % of control (dose: 100.0 mg/kg/injection, schedule: Q04DX003 (ip), vehicle: other); 100 % of control (dose: 200.0 mg/kg/injection, schedule: Q01DX009 (ip), vehicle: other); 110 % of control (dose: 200.0 mg/kg/injection, schedule: Q04DX003 (ip), vehicle: other); 100 % of control (dose: 400.0 mg/kg/injection, schedule: Q01DX009 (ip), vehicle: other); 100 % of control (dose: 400.0 mg/kg/injection, schedule: Q04DX003 (ip), vehicle: other).
Turning to `O=C(C=P(c1ccccc1)(c1ccccc1)c1ccccc1)CCl`, the T/C (dose: 6.25 mg/kg/injection, schedule: Q01DX009 (ip), vehicle: Klucel (hydroxypropylcellulose) (HPC)) was 91 % of control; the T/C (dose: 6.25 mg/kg/injection, schedule: Q04DX003 (ip), vehicle: Klucel (hydroxypropylcellulose) (HPC)) was 100 % of control; the T/C under setting [1] was 91 % of control; the T/C (dose: 12.5 mg/kg/injection, schedule: Q04DX003 (ip), vehicle: Klucel (hydroxypropylcellulose) (HPC)) is 100 % of control; the T/C under setting [2] was 100 % of control; the T/C under setting [3] was 100 % of control.
Take `N#CCCN1c2ccccc2Sc2ccccc21`: the T/C is 110 % of control under setting [4], 105 % of control under setting [9] and 110 % of control under setting [10].
As for `COC(=O)C(CCSC)NC(=O)CNC(=O)OC(C)(C)C` (stereo not given), the T/C is, setting by setting: (dose: 50.0 mg/kg/injection, schedule: Q01DX005 (ip), vehicle: saline with Tween-80) 100 % of control; (dose: 100.0 mg/kg/injection, schedule: Q01DX005 (ip), vehicle: saline with Tween-80) 105 % of control; (dose: 200.0 mg/kg/injection, schedule: Q01DX005 (ip), vehicle: saline with Tween-80) 102 % of control.
On to `CC(Oc1ccccc1)C(=O)N=c1scc(-c2ccc(Br)cc2)n1-c1cccc2ccccc12` (stereo not given), for which the T/C is, setting by setting: (dose: 12.5 mg/kg/injection, schedule: Q01DX009 (ip), vehicle: gum acacia) 110 % of control; (dose: 50.0 mg/kg/injection, schedule: Q01DX009 (ip), vehicle: gum acacia) 118 % of control.
As for `Cc1cc[n+](C)c2ccccc12`, the T/C runs as follows: (dose: 9.37 mg/kg/injection, schedule: Q04DX003 (ip), vehicle: saline) 100 % of control; (dose: 18.75 mg/kg/injection, schedule: Q04DX003 (ip), vehicle: saline) 100 % of control.
